In patent publication US9962329B2, “Cosmetic use of the combination of a carob germ extract and caffeine as a slimming active agent” (ISP INVESTMENTS INC., priority 2012, dated 2018):

What was measured:
aquaglyceroporin 7 = experiment: Immuno-detection of aquaglyceroporin 7 expression in differentiated 3T3-L1 adipocyte cells; assay type: cell-based; settings: differentiated 3T3-L1 cells; with respect to untreated control; carob extract 1% daily for 12 days, caffeine 2 mM for 5 hours
Protocol: 3T3-L1 adipocyte cells are cultivated in a DMEM medium with 4.5 g/l glucose, 2 mM glutamine and 10% fetal bovine serum. Two days after the cell confluence phase, the differentiation of 3T3-L1 cells into adipocytes is induced by adding a solution of 0.5 mM of IBMX, 1 μM of dexamethasone and 10 μg/ml of insulin (Sigma, St. Louis, Mo., USA) in the culture medium for 3 days. Then, only the insulin is kept for 3 to 4 days of additional culture. The cells are then kept in culture, in a standard medium, for another 3 days. The treatment is performed from the start of the differentiation induction phase by a daily application, for 12 days, of 1×PBS (Lonza, Rockland, Me., USA) for the untreated control, carob germ extract with a dry weight of 2.5 g/kg as obtained in example 1, diluted to 1% in PBS, or carob germ extract as obtained in example 1, diluted to 1% in PBS and to which 2 mM of caffeine is added for the last 5 hours of the treatment. A 5-hour treatment with 2 mM of caffeine was also performed. […] The cell membranes are permeabilized with acetone for 4 minutes at -20° C. The non-specific sites are saturated with 3% bovine serum albumin (Sigma-Aldrich, […], Germany) for 15 minutes. […] Three images for each condition are analyzed using the Image-Pro Analyzer 6.3 software. […]

[1] = tested on: differentiated 3T3-L1 adipocyte cells; experiment: Nile Red detection of lipid droplets (intensity, size, number) in adipocytes; assay type: cell-based
Protocol: The culture, the differentiation of 3T3-L1 cells, then the treatment with the compounds to be tested are performed as in example 2. The lipid detection is performed using Nile Red fluorescent stain, a phenoxazone that intensely labels the intracellular lipids. The color of the fluorescence observed is directly dependent upon the hydrophobicity of the surrounding medium. This specific property of Nile Red makes it possible to differentiate neutral lipids, labeled in gold-yellow, from phospholipids, labeled in red. […] The cells are examined with the fluorescence microscope. The quantification and statistical analysis are performed as in example 2.

[2] = with respect to untreated cells

Structure (SMILES): Cn1c(=O)c2c(ncn2C)n(C)c1=O [Caffeine, caffeine]
- increase in fluorescence (aquaglyceroporin 7 immunolabeling) (aquaglyceroporin 7): 12.6%
- Average droplet size ([1]; differentiated 3T3-L1 cells): 109.55 μm^2
- Number of droplets ([1]; differentiated 3T3-L1 cells): 219
- Intensity of the Nile Red labeling, Ratio ([1]; differentiated 3T3-L1 cells, carob extract 1% 12 days, caffeine 2 mM 5 hours): 180.47 Pixels/μm^2
- intensity of the Nile Red labeling, size and number of droplets (in words) ([1]; with respect to the untreated cells): reduced
- Droplet size, % reduction [1, 2]: −17.40%
- Intensity of the Nile Red labeling, % reduction [1, 2]: −37.36%
- Number of droplets, % reduction [1, 2]: −18%
